What was measured:
[1] = dog, in vivo
Excerpt: Pharmacokinetic investigation of minocycline-containing periodontal microcapsules was undertaken to produce a dosage form that could be administered to the periodontal pocket and that would yield minocycline concentrations exceeding the MIC's (0.05-1.56 mcg/ml) for organisms associated with periodontal disease for extended periods of time. Therefore, a study to evaluate four different minocycline periodontal formulations relative to determining minocycline levels in crevicular fluid was conducted in a dog model. The study utilized beagle dogs with surgically created "chronic" intrabony periodontal defects. […]
In sequence, the defects were created as follows: First, the lower fourth premolars were extracted, sockets were allowed to heal for one month, and dogs received a full mouth scaling and tooth cleaning. […] Dogs were monitored for an additional four weeks.
For evaluation of crevicular levels of minocycline, dogs were placed under general anesthesia, and the various formulations were administered into the periodontal pockets associated with the created defects. […] The strip was then removed, and the relative amount of fluid was determined by a Periotron 6000 instrument. […]
Samples of gingival fluid are collected as described above, and analyzed. […]

[2] = test system: organisms associated with periodontal disease; settings: cited from earlier work
[3] = test system: gram-positive and gram-negative organisms; settings: cited from earlier work

CN(C)c1ccc(O)c2c1C[C@H]1C[C@H]3[C@H](N(C)C)C(O)=C(C(N)=O)C(=O)[C@@]3(O)C(O)=C1C2=O [minocycline, 7-dimethylamino-6-deoxy-6-demethyltetracycline]
period for which minimum inhibitory concentrations (MIC's) can be achieved [1]: up to two | MIC [2]: 0.05 to 1.56 µg/mL | antibacterial activity [3]: activity against a wide range of gram-positive and gram-negative organisms

Source: patent US5622498A, “Method for the treatment of periodontal disease by sustained delivery of a therapeutic agent to the periodontal pocket, composition of matter therefor and apparatus for the administration thereof” (priority 1993, dated 1997)
